ChEMBL document CHEMBL5032490, “Neuroactive Type-A γ-Aminobutyric Acid Receptor Allosteric Modulator Steroids from the Hypobranchial Gland of Marine Mollusk, Conus geographus” (J Med Chem, 2021)
Active and inactive are the calls of the source.

What was measured:
[1] = Induction of ATP and Kcl-induced increase in cytosolic Ca2+ ion concentration mouse […] assessed as neuron population at 10 uM measured after 1 hr by Fura2AM dye based fluorescence microscopic analysis; assay type: functional
[2] = Reduction of ATP and Kcl-induced increase in cytosolic Ca2+ ion concentration mouse […] assessed as neuron population at 10 uM measured after 1 hr by Fura2AM dye based fluorescence microscopic analysis; assay type: functional; parameters: scale not given: the % may be the effect or the level left
[3] = Induction of cytosolic calcium ion concentration in mouse microglia cells at 10 uM measured after 1 hr by Fura2AM dye based fluorescence microscopic analysis; assay type: functional
[4] = Induction of ATP and Kcl-induced increase in cytosolic Ca2+ ion concentration mouse peptidergic nociceptive DRG neuron assessed as neuron population at 10 uM measured after 1 hr by Fura2AM dye based fluorescence microscopic analysis; assay type: functional
[5] = Reduction of ATP and Kcl-induced increase in cytosolic Ca2+ ion concentration mouse peptidergic nociceptive DRG neuron assessed as neuron population at 10 uM measured after 1 hr by Fura2AM dye based fluorescence microscopic analysis; assay type: functional; parameters: scale not given: the % may be the effect or the level left
[6] = Induction of cytosolic calcium ion concentration in mouse peptidergic nociceptive DRG neuron at 10 uM measured after 1 hr by Fura2AM dye based fluorescence microscopic analysis; assay type: functional
[7] = Induction of ATP and Kcl-induced increase in cytosolic Ca2+ ion concentration mouse non-peptidergic nociceptive DRG neuron assessed as neuron population at 10 uM measured after 1 hr by Fura2AM dye based fluorescence microscopic analysis; assay type: functional
[8] = Reduction of ATP and Kcl-induced increase in cytosolic Ca2+ ion concentration mouse non-peptidergic nociceptive DRG neuron assessed as neuron population at 10 uM measured after 1 hr by Fura2AM dye based fluorescence microscopic analysis; assay type: functional; parameters: scale not given: the % may be the effect or the level left
[9] = target: T1, GABA-A receptor; alpha-1/beta-3/gamma-2 (Homo sapiens, UniProt P14867+P18507+P28472); test: Negative allosteric modulation activity at human GABAA alpha1beta3gamma2 stably expressed in HEK cells by whole cell patch clamp method; assay type: cell-based
T1 sequence (P14867 whole entry): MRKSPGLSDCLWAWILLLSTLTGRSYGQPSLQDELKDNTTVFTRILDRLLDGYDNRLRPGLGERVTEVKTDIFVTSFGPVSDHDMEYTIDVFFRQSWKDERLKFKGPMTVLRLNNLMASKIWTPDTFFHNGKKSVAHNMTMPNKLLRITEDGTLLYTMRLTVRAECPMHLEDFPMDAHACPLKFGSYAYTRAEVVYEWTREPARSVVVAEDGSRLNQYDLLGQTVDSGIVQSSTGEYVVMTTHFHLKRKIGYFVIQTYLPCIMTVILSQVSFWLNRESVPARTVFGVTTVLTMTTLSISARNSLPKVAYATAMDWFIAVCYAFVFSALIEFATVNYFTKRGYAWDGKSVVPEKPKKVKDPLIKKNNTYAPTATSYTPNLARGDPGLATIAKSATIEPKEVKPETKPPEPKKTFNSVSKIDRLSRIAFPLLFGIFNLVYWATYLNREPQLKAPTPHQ
T1 sequence (P18507 whole entry): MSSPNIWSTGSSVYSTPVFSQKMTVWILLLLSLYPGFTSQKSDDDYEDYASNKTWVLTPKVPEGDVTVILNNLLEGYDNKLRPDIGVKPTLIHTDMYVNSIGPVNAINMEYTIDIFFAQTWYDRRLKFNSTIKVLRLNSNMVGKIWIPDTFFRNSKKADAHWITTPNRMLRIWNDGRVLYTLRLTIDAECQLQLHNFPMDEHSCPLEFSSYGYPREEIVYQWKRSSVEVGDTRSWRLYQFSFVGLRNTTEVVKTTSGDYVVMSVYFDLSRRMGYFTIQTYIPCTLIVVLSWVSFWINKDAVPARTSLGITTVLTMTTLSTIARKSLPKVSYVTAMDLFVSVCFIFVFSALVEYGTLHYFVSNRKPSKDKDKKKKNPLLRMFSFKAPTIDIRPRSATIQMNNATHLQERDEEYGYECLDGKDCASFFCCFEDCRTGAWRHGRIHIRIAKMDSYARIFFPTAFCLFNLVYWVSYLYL
T1 sequence (P28472 whole entry): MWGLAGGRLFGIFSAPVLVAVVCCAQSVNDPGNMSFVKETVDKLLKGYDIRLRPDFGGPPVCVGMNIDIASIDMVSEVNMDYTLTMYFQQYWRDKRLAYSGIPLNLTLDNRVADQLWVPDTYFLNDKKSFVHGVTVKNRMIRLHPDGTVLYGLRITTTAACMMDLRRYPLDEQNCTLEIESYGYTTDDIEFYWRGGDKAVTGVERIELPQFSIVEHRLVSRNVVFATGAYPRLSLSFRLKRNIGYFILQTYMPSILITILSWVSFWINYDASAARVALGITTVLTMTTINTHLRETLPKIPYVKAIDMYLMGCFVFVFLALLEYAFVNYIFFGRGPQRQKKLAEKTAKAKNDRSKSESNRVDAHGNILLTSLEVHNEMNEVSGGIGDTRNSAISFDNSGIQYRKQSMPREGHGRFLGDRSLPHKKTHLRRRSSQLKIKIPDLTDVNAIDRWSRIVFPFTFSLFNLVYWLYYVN

[10] = target: GABA A receptor alpha-4/beta-3/gamma-2 (Homo sapiens, UniProt P18507+P28472+P48169); test: Negative allosteric modulation activity at human GABAA alpha4beta3gamma2 stably expressed in HEK cells by patch clamp method; assay type: cell-based
Neuron [11] = test: Negative allosteric modulation of mouse GABA receptor in mouse peptidergic nociceptive DRG neurons assessed as inhibition of KCl-induced response at 10 uM; assay type: tissue-based; conditions: filed as negative allosteric modulator
Neuron [12] = test: Negative allosteric modulation of mouse GABA receptor in mouse C-low-threshold mechanoreceptive DRG neurons assessed as inhibition of KCl-induced response at 40 uM; assay type: tissue-based; conditions: filed as negative allosteric modulator
Mus musculus [13] = test: Antinociception activity in mouse model assessed as reduction in thermal hypersensitivity at 2 to 50 mg/kg, ip by hot plate test; assay type: functional, organism-based; conditions: dose 2-50 mg/kg
Mus musculus [14] = test: Antinociceptive activity in C57BL6 mouse model of inflammatory pain assessed as total number of responses during second phase at 2 to 50 mg/kg, ip administered by formalin test; assay type: functional, organism-based; conditions: dose 2-50 mg/kg
[15] = Induction of ATP and Kcl-induced increase in cytosolic Ca2+ ion concentration mouse DRG other neuron subtype assessed as neuron population at 10 uM measured after 1 hr by Fura2AM dye based fluorescence microscopic analysis; assay type: functional
[16] = Reduction of ATP and Kcl-induced increase in cytosolic Ca2+ ion concentration mouse DRG other neuron subtype assessed as neuron population at 10 uM measured after 1 hr by Fura2AM dye based fluorescence microscopic analysis; assay type: functional; parameters: scale not given: the % may be the effect or the level left
[17] = Induction of cytosolic calcium ion concentration in mouse DRG other neuron subtype at 10 uM measured after 1 hr by Fura2AM dye based fluorescence microscopic analysis; assay type: functional
Neuron [18] = test: Negative allosteric modulation of human GABA receptor expressed in mouse DRG neurons assessed as inhibition of 340 nM GABA-induced responses at 0.5 uM using c-LTMRS; assay type: tissue-based; conditions: filed as negative allosteric modulator
Neuron [19] = test: Negative allosteric modulation of human GABA receptor expressed in mouse DRG neurons assessed as inhibition of 340 nM GABA-induced responses at 0.5 uM using cold thermo-sensors; assay type: tissue-based; conditions: filed as negative allosteric modulator

Sequence of GABA A receptor alpha-4/beta-3/gamma-2 (P48169 whole entry, one chain of several): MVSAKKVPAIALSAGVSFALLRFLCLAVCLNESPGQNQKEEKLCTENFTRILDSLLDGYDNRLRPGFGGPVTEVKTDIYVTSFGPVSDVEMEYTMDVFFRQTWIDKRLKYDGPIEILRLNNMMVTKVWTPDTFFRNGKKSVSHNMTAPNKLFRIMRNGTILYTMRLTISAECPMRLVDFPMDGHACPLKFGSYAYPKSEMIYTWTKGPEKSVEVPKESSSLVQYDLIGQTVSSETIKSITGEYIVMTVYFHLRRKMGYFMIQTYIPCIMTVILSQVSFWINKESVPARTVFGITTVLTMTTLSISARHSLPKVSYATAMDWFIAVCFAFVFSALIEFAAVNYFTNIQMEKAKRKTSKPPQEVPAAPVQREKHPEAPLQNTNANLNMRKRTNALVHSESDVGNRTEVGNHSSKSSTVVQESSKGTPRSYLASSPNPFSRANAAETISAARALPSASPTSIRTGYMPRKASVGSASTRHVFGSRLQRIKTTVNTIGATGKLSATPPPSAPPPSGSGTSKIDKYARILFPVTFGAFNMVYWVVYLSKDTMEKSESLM

SMILES: CC(C)CCC[C@@H](C)[C@H]1CC[C@H]2[C@@H]3C(=O)C=C4C=CCC[C@]4(C)[C@H]3CC[C@]12C
- Activity [1]: 4%
- Activity [2]: 14%
- Activity [3]: 7%
- Activity [4]: 56%
- Activity [5]: 4%
- Activity [6]: 33%
- Activity [7]: 39%
- Activity [8]: 9%
- IC50 [9]: 21 µM
- IC50 [10]: 1 µM
- Activity (Neuron [11]): Active
- Activity (Neuron [12]): Active
- Activity (Mus musculus [13]): Active
- Activity (Mus musculus [14]): inactive
- Activity [15]: 7%
- Activity [16]: 5%
- Activity [17]: 3%
- Activity (Neuron [18]): Active
- Activity (Neuron [19]): Active
